Reference: patent US12084458B2, “Substituted pyridines, pyridazines, and pyrimidines as TYK2 inhibitors” (Sudo Biosciences Limited, priority 2021, dated 2024)

Tests used:
[1] = tested on: HEK-Blue IL-23 cells (IL-23-stimulated STAT3 SEAP reporter; TYK2 JH2); test: HEK-Blue IL-23 SEAP reporter assay for profiling TYK2 pseudokinase (JH2) inhibition; type: cell-based; details: 10 ng/mL human recombinant IL-23, SEAP reporter, read-out: IL23 (TYK2 inhibitory activity, IC50)
Protocol: (§1) Example B-1: HEK-Blue™ IL-23 and IFNα/β Reporter Assays for Profiling TYK2 Pseudokinase (JH2) Inhibition
(§2) HEK-Blue™ IL-23 and IFNα/β cells with a stably-integrated cytokine receptor and STAT3 or STAT1 express STAT-inducible secreted embryonic alkaline phosphatase (SEAP) reporter gene upon cytokine stimulation. These cells are plated in DMEM (Gibco) containing 10% heat-inactivated FBS (Gibco) and 100 U/mL PenStrep (Gibco) at 37° C. under 5% CO2 conditions for 20-22 hours. The cells are then pretreated with serially diluted test compounds for 60 min prior to stimulation with either 10 ng/mL human recombinant IL-23 (Miltenyl Biotech) or 1 ng/mL human recombinant IFNα (InvivoGen) for 22-24 hours for IL-23 or 16-18 h for IFNα. SEAP induction is measured using the QUANTI Blue™ Solution (InvivoGen) according to the manufacturer's instructions.

[2] = tested on: HEK-Blue IFNα/β cells (IFNα-stimulated STAT1 SEAP reporter; TYK2 JH2); test: HEK-Blue IFNα/β SEAP reporter assay for profiling TYK2 pseudokinase (JH2) inhibition; type: cell-based; design: IFNα (TYK2 inhibitory activity, IC50): scale not given here; details: 1 ng/mL human recombinant IFNα; for IC50: Homo sapiens, HEK-Blue, read-out: IFNα (TYK2 inhibitory activity, IC50)
Protocol: as §1, §2

SMILES | IC50 [1] [nM] | IC50 [2] [nM] | IFNα (TYK2 inhibitory activity, IC50) [2]
[2H]C([2H])([2H])NC(=O)c1nnc(NC(=O)C2CC2)cc1Nc1cccc2c1N(C)[C@H](C)c1nc(C)nn1-2 (single isomer, unassigned) [Compound 23] | < 30 | 30 to 300 | 
[2H]C([2H])([2H])NC(=O)c1cnc(NC(=O)C2CC2)cc1Nc1cccc2c1N(C)[C@H](C)c1nc(C)nn1-2 (single isomer, unassigned) [Compound 24] | < 30 | 30 to 300 | 
[2H]C([2H])([2H])NC(=O)c1cnc(NC(=O)C2CC2)cc1Nc1cccc2c1N(C)[C@H](C)c1nn(C)nc1-2 (single isomer, unassigned) [Compound 58] | < 30 | 300 to 1000 | 
[2H]C([2H])([2H])NC(=O)c1nnc(NC(=O)C2CC2)cc1Nc1cccc2c1N(C)[C@H](C)c1nn(C)nc1-2 (single isomer, unassigned) [Compound 59] | < 30 | 30 to 300 | 
[2H]C([2H])([2H])NC(=O)c1nnc(NC(=O)NC)cc1Nc1cccc2c1N(C)[C@H](C)c1nn(C)nc1-2 (single isomer, unassigned) [Compound 61] | 30 to 300 | 300 to 1000 | 
[2H]C([2H])([2H])NC(=O)c1nnc(NC(=O)NC)cc1Nc1nccc2c1N(C)[C@H](C)c1nn(C)nc1-2 (single isomer, unassigned) [Compound 99] | 30 to 300 | 30 to 300 | 
[2H]C([2H])([2H])NC(=O)c1cnc(NC(=O)C2CC2)cc1Nc1cc(F)cc2c1N(C)[C@H](C)c1nc(C)nn1-2 (single isomer, unassigned) [Compound 106] | 30 to 300 | > 1000 | 
[2H]C([2H])([2H])NC(=O)c1nnc(NC(=O)C2CC2)cc1Nc1cc(F)cc2c1N(C)[C@H](C)c1nc(C)nn1-2 (single isomer, unassigned) [Compound 109] | 30 to 300 | 300 to 1000 | 
CNC(=O)c1nnc(Nc2ccc(F)cn2)cc1Nc1cccc2c1OCc1nc(C)nn1-2 [Compound 2, 6-((5-fluoropyridin-2-yl)amino)-N-methyl-4-((2-methyl-4H-benzo[b][1,2,4]triazolo[1,5-d][1,4]oxazin-6-yl)amino)pyridazine-3-carboxamide] | > 1000 | > 1000 | 
CNC(=O)c1nnc(NC(=O)C2CC2)cc1Nc1cccc2c1OCc1nc(CO)nn1-2 [Compound 3, 6-(cyclopropanecarboxamido)-4-((2-(hydroxymethyl)-4H-benzo[b][1,2,4]triazolo[1,5-d][1,4]oxazin-6-yl)amino)-N-methylpyridazine-3-carboxamide] | > 1000 | > 1000 | 
[2H]C([2H])([2H])NC(=O)c1nnc(NC(=O)CN2CCOCC2)cc1Nc1cccc2c1N(C)Cc1nc(C)nn1-2 [Compound 9, 4-((2,5-dimethyl-4,5-dihydro-[1,2,4]triazolo[1,5-a]quinoxalin-6-yl)amino)-N-(methyl-d3)-6-(2-morpholinoacetamido)pyridazine-3-carboxamide] | 30 to 300 |  | C/D
[2H]C([2H])([2H])NC(=O)c1nnc(NC(=O)CN(C)C)cc1Nc1cccc2c1N(C)Cc1nc(C)nn1-2 [Compound 14, 4-((2,5-dimethyl-4,5-dihydro-[1,2,4]triazolo[1,5-a]quinoxalin-6-yl)amino)-6-(2-(dimethylamino)acetamido)-N-(methyl-d3)pyridazine-3-carboxamide] | 30 to 300 | 300 to 1000 | 
[2H]C([2H])([2H])NC(=O)c1nnc(Nc2cc(C)cc(C)c2)cc1Nc1cccc2c1N(C)Cc1nc(C)nn1-2 [Compound 16, 4-((2,5-dimethyl-4,5-dihydro-[1,2,4]triazolo[1,5-a]quinoxalin-6-yl)amino)-6-((3,5-dimethylphenyl)amino)-N-(methyl-d3)pyridazine-3-carboxamide] | 30 to 300 |  | C/D
[2H]C([2H])([2H])NC(=O)c1nnc(NC(=O)C(C)C)cc1Nc1cccc2c1N(C)Cc1nc(C)nn1-2 [Compound 17, 4-((2,5-dimethyl-4,5-dihydro-[1,2,4]triazolo[1,5-a]quinoxalin-6-yl)amino)-6-isobutyramido-N-(methyl-d3)pyridazine-3-carboxamide] | 30 to 300 | 300 to 1000 | 
[2H]C([2H])([2H])NC(=O)c1nnc(NC(=O)CC(F)(F)F)cc1Nc1cccc2c1N(C)Cc1nc(C)nn1-2 [Compound 18, 4-((2,5-dimethyl-4,5-dihydro-[1,2,4]triazolo[1,5-a]quinoxalin-6-yl)amino)-N-(methyl-d3)-6-(3,3,3-trifluoropropanamido)pyridazine-3-carboxamide] | 30 to 300 | 300 to 1000 | 
[2H]C([2H])([2H])NC(=O)c1nnc(NC(=O)N(C)C)cc1Nc1cccc2c1N(C)Cc1nc(C)nn1-2 [Compound 20, 4-((2,5-dimethyl-4,5-dihydro-[1,2,4]triazolo[1,5-a]quinoxalin-6-yl)amino)-6-(3,3-dimethylureido)-N-(methyl-d3)pyridazine-3-carboxamide] | 30 to 300 | > 1000 | 
[2H]C([2H])([2H])NC(=O)c1cnc(NC(=O)C2CC2)nc1Nc1cccc2c1N(C)Cc1nc(C)nn1-2 [Compound 21, 2-(cyclopropanecarboxamido)-4-((2,5-dimethyl-4,5-dihydro-[1,2,4]triazolo[1,5-a]quinoxalin-6-yl)amino)-N-(methyl-d3)pyrimidine-5-carboxamide] | 30 to 300 | 30 to 300 | 
[2H]C([2H])([2H])NC(=O)c1nnc(NC(=O)C2(F)CC2)cc1Nc1cccc2c1N(C)Cc1nc(C)nn1-2 [Compound 37, 4-((2,5-dimethyl-4,5-dihydro-[1,2,4]triazolo[1,5-a]quinoxalin-6-yl)amino)-6-(1-fluorocyclopropane-1-carboxamido)-N-(methyl-d3)pyridazine-3-carboxamide] | 30 to 300 | > 1000 | 
[2H]C([2H])([2H])NC(=O)c1nnc(NS(=O)(=O)C2CC2)cc1Nc1cccc2c1N(C)Cc1nc(C)nn1-2 [Compound 38, 6-(cyclopropanesulfonamido)-4-((2,5-dimethyl-4,5-dihydro-[1,2,4]triazolo[1,5-a]quinoxalin-6-yl)amino)-N-(methyl-d3)pyridazine-3-carboxamide] | > 1000 | > 1000 | 
[2H]C([2H])([2H])NC(=O)c1nnc(NC(=O)[C@@H]2CC2(F)F)cc1Nc1cccc2c1N(C)Cc1nc(C)nn1-2 [Compound 41, (S)-6-(2,2-difluorocyclopropane-1-carboxamido)-4-((2,5-dimethyl-4,5-dihydro-[1,2,4]triazolo[1,5-a]quinoxalin-6-yl)amino)-N-(methyl-d3)pyridazine-3-carboxamide] | 30 to 300 | 30 to 300 | 
[2H]C([2H])([2H])NC(=O)c1nnc(NC(=O)[C@H]2CC2(F)F)cc1Nc1cccc2c1N(C)Cc1nc(C)nn1-2 [Compound 42, (R)-6-(2,2-difluorocyclopropane-1-carboxamido)-4-((2,5-dimethyl-4,5-dihydro-[1,2,4]triazolo[1,5-a]quinoxalin-6-yl)amino)-N-(methyl-d3)pyridazine-3-carboxamide] | 30 to 300 | 30 to 300 | 
[2H]C([2H])([2H])NC(=O)c1nnc(NC(=O)C2CC2)cc1Nc1cccc2c1N(C)[C@@H](C([2H])([2H])[2H])c1nc(C)nn1-2 [Compound 43, (S)-6-(cyclopropanecarboxamido)-4-((2,5-dimethyl-4-(methyl-d3)-4,5-dihydro-[1,2,4]triazolo[1,5-a]quinoxalin-6-yl)amino)-N-(methyl-d3)pyridazine-3-carboxamide] | 30 to 300 | 300 to 1000 | 
[2H]C([2H])([2H])NC(=O)c1cnc(NC(=O)C2CC2)c(F)c1Nc1cccc2c1N(C)Cc1nn(C)nc1-2 [Compound 65, 6-(cyclopropanecarboxamido)-4-((2,5-dimethyl-4,5-dihydro-2H-[1,2,3]triazolo[4,5-c]quinolin-6-yl)amino)-5-fluoro-N-(methyl-d3)nicotinamide] | 300 to 1000 |  | C/D
CNC(=O)c1nnc(Nc2ccc(F)cn2)cc1Nc1cccc2c1OCCCn1cnnc1-2 [Compound 74, 4-((6,7-dihydro-5H-benzo[b][1,2,4]triazolo[3,4-d][1,5]oxazocin-9-yl)amino)-6-((5-fluoropyridin-2-yl)amino)-N-methylpyridazine-3-carboxamide] | > 1000 | > 1000 | 
CNC(=O)c1nnc(NC(=O)C2CC2)cc1Nc1cccc2c1OCCCn1cnnc1-2 [Compound 75, 6-(cyclopropanecarboxamido)-4-((6,7-dihydro-5H-benzo[b][1,2,4]triazolo[3,4-d][1,5]oxazocin-9-yl)amino)-N-methylpyridazine-3-carboxamide] | > 1000 | > 1000 | 
[2H]C([2H])([2H])NC(=O)c1nnc(N2CCN(C(C)C)C2=O)cc1Nc1cccc2c1N(C)Cc1nc(C)nn1-2 [Compound 81, 4-((2,5-dimethyl-4,5-dihydro-[1,2,4]triazolo[1,5-a]quinoxalin-6-yl)amino)-6-(3-isopropyl-2-oxoimidazolidin-1-yl)-N-(methyl-d3)pyridazine-3-carboxamide] | 30 to 300 |  | C/D
